The values that follow come from ChEMBL document CHEMBL1154239, “Captopril and 6-mercaptopurine: whose SH possesses higher antioxidant ability?” (Eur J Med Chem, 2009).

The test system of assay [1] is Radical scavenging activity. The assay can be described thus: Antioxidant activity assessed as DPPH radical scavenging activity. It counts as functional.
The nature of assay [2]: Antioxidant activity assessed as galvinoxyl radical scavenging activity. The class given is functional.
Assay [3] can be described thus: Antioxidant activity against […]-induced DNA damage assessed as inhibition time. It counts as functional.
Assay [4] can be described thus: Antioxidant activity against […]-induced hemolysis of erythrocytes assessed as lag time of inhibition. The class given is functional, Erythrocyte.
The nature of assay [5]: Antioxidant activity assessed as protection against hemin-induced erythrocytes hemolysis at 0.6 uM. The conditions noted are these: Erythrocyte. It counts as functional.
Assay [6] in a line: Antioxidant activity assessed as ABTS radical scavenging activity. It counts as functional.
The subject of a further assay is Erythrocyte. Put plainly: Antioxidant activity assessed as protection against hemin-induced erythrocytes hemolysis up to 1 uM. It counts as functional, cell-based.

The source made the active and inactive calls. The rule behind the calls is not given here.

As to `C[C@H](CS)C(=O)N1CCC[C@H]1C(=O)O` [CAPTOPRIL], the half-inhibitory concentration (IC50) was found to be 43 µM in assay [1], 7.1 µM in assay [2] and 6.5 µM in assay [6]. In addition, the TIME in assay [3] was 3.38 h. Also, the Time in assay [4] was 270 min. Further, the inhibition at 0.6 µM in assay [5] was found to be 80%.
For `Sc1ncnc2nc[nH]c12` [MERCAPTOPURINE ANHYDROUS], the IC50 in assay [1] amounted to 65 µM; in assay [2], 188 µM; in assay [6], 4.7 µM. The TIME in assay [3] was 3 h. Also, the Time in assay [4] is given as 406 min. For the same compound, the result in the assay on Erythrocyte was inactive.
With `OC[C@H]1O[C@@H](n2cnc3c(S)ncnc32)[C@H](O)[C@@H]1O` [THIOINOSINE], the concentration for half-maximal inhibition (IC50) in assay [1] turned out to be 180 µM; in assay [2], 65 µM; in assay [6], 3.9 µM. Moreover, the TIME in assay [3] turned out to be 3.12 h. Moreover, the Time in assay [4] came out at 482 min. The result with Erythrocyte was inactive.
With `Cc1c(C)c2c(c(C)c1O)CCC(C)(C(=O)O)O2` (stereo not given) [TROLOX], the IC50 in assay [1] is 22.8 µM; in assay [6], 11.6 µM.

Usually IC50 stands for the concentration that inhibits the measured activity by half. By inhibition is commonly meant the percentage by which the read-out fell short of the control.
